Measurements reported in US7442763B2, “Compositions for treating abnormalities in glomerular filtration, patent ductus arteriosus and osteoporosis” (Hopital Sainte-Justine, priority 1999, dated 2008).
Square brackets hold non-standard residues; d marks the D form. Ends that are not written are not given here. Bip = N[C@@H](Cc1ccc(-c2ccccc2)cc1)C(=O)O; Dip = N[C@H](C(=O)O)C(c1ccccc1)c1ccccc1; hPhe = N[C@@H](CCc1ccccc1)C(=O)O

Assays:
saphenous vein of piglet = experiment: PGE2-induced dilation of saphenous vein rings, organ bath assay; design: species or system Yorkshire piglets; details: 1 μM peptides, 1 μM PGE2; rings pre-constricted with U46619; average of 2-8 experiments
Procedure: Animals. Yorkshire piglets (2-4 days old) were used in this study, according to a protocol approved by the Animal Care Committee of the Research Centre of Ste-Justine Hospital. Briefly, animals were anesthetized with 1.5% halothane and the lower external saphenous veins removed and placed in cold Krebs buffer (pH 7.4) of the following composition (mM): NaCl 120, KCl 4.5, CaCl2 2.5, MgSO4 1.0, NaHCO3 27, KH2PO4 1.0, glucose 10, to which 1.5 U/ml heparin was added.
Organ bath assay. The saphenous veins were cleaned of extraneous tissue and cut into 4 mm rings that were placed in individual jacketed organ baths (15 ml; Radnoti Glass, Monrovia, Calif.) containing Krebs buffer and maintained at 37° C. The solution was bubbled with a mixture of 95% O2-5% CO2. In each experiment, 8 rings were used (4 from each saphenous vein) and were equilibrated for 60 min under 2.0 gr passive tension, with frequent washing and tension adjustment. Tension was measured by force-displacement transducers and was recorded on a computerized data acquisition system using the Work Bench software (both from Kent Scientific, Litchfield, Conn.).
Experimental protocol. In a first set of experiments, the relative distribution of dilatory EP receptor subtypes was ascertained using a combination of EP receptor agonists and antagonists. The vasodilatory response of the lower external saphenous veins to PGE2 appears to result from the stimulation of 30% EP2 and 70% EP4. Tissues were initially challenged with 2×10^−7 U46619 which induced a 1.5 to 2.0 gr increase in tension. […] When the response to U46619 reached a steady state, agents were added. When no response to the agents were observed, a period of 10 minutes was allowed to insure proper distribution of the agents in the tissue. Dose-response curves to PGE2 (10^−10−10^−6 M) were then obtained in the presence of absence of each of the tested drugs.
The results are average of 2-8 experiments. The results are tabulated as percent reversal of 1 μM PGE2-induced […] in the presence of 1 μM peptides. The peptides shown here contain productive and effective substitutions in the parent peptide PHG 213 (SEQ ID NO:1)

EP4 receptor [1] = experiment: Basal and PGE2-stimulated cAMP levels in EP4/293 cells; assay type: cell-based, Human; details: forskolin 100 μM added for 15 min, 100 μM IBMX
Source text: (§1) Data are averages of four replicates.

EP4 receptor [2] = target: EP4 receptor (Homo sapiens, UniProt P35408, P4S); experiment: as above; assay type: cell-based
Source text: as §1

EP4 receptor [3] = experiment: Ocular perfusion pressure in porcine eye model (ex vivo vasomotricity of choroid); design: species or system newborn pig; details: PHG213 infused at 100 μM after U46619 1 μM and PGE2 1 μM
Source text: In order to test the efficacy of PHG213 (SEQ ID NO: 1) on EP4 receptor function, an ex vivo assay of vasomotricity of porcine choroid was used. The dilatory response to PGE2 in this vascular bed was previously shoen to be mediated by EP4 receptor (Abran, D. et al. 1997. Am. J. Physiol. 272: R995-1001).
Method: The method as described in detail by Abran et al. (1997) was followed exactly. A vortex vein from the eye of a newborn pig was catheterized with a 27-gauge needle and perfused with Kreb's solution until perfusion pressure was stable. The vasculature was first constricted with a thromboxane mimetic, U46619 (1 μM), and then PGE2 was infused at 1 μM. Once the reversal of constriction reached a plateau, then PHG213 was infused at 100 μM and the perfusion pressure was recorded.
Positive values of perfusion pressure indicate constriction whereas negative values indicate dilation of the vasculature. PGE2 reversed the constriction produced by U46619. […] Since it is known that the dilatory effects of PGE2 are predominantly mediated by EP4 receptor in choroid of the newborn pig, PHG 213 antagonized the actions of EP4 receptor and blocked the dilation produced by this receptor.

normal rats = experiment: Glomerular filtration rate and urinary volume in normal rats; assay type: in vivo, Sprague-Dawley adult rats; details: i.v. infusion 6 μmol/Kg/h
Procedure: (§2) Method: Sprague-Dawley adult rats (˜250 g) were anesthetized with 50 mg/kg pentobarbitone. Left jugular vein (for infusion) and left carotid artery (for measuring blood pressure) were catheterized and another catheter was placed at the tip of the bladder for collecting urine. Infusion of [^3H]-inulin in saline (2 μCi/Kg/h) was started and continued for 2 h to stabilize the system. Urine collection was exactly for 20 min and at 10 min mark, 0.1 ml of blood was withdrawn into heparinized tubes. Blood was centrifuged and radioactivity in plasma was counted. After 10 min and 30 min (30 min and 60 min since the start of the previous urine collection), the process was repeated. The antagonist, PHG 213, was infused in saline i.v. at 6 μmol/Kg/h for one hour before the start of first urine collection. Urinary volume (UV) is calculated and expressed as μl of urine/h corrected for the weight of the animal. GFR was calculated as the ratio of urinary […] corrected for the volume of the urine and the weight of the animal.

diabetic rats = experiment: Glomerular filtration rate and urinary volume in streptozotocin-induced diabetic rats; assay type: in vivo, Sprague-Dawley adult rats; details: systemic infusion
Procedure: as §2
Method: Sprague-Dawley adult rats (˜250 g) were injected i.p. with streptozotocin (45-50 mg/Kg) and two days later, the urine was tested for glucose and proteinuria. Two weeks later, the rats that tested positive for both markers were chosen to test the effects of PHG 213 (SEQ ID NO:1) on GFR and UV using a method described above.

[4] = test system: ductus arteriosus of fetal sheep; experiment: Ductus arteriosus diameter in fetal sheep by Doppler echocardiography; assay type: in vivo; details: 2 mg bolus followed by 1 mg/Kg infusion over 15 min
Procedure: Pregnant ewes (129-140 days of gestation) was anesthetized with ketamine (30 mg/Kg i.v.), a caesarian section was performed and the fetus exteriorized. To mimic fetal respiratory conditions, the head of the fetus was submerged in a glove filled with saline. Femoral and jugular veins were catheterized for systemic blood pressure measurements and drug infusions respectively. Ducuts arteriosus (DA) diameter was measured using Doppler echocardiography as described before (Teyssier, G. et al. 1989. J. Cardiovascular Technol. 8: 259-266). Echocardiographic measurements were performed with an Acuson 128 XP/10C real time ultrasound imaging system using 7.5 or 5-MHz transducers duplexed with a range-gated Doppler. Doppler signals were filtered by a 100-Hz high-pass filter. The DA was visualized through a left second intercostal parasternal approach. After the drugs were injected, measurements of DA diameter were repeated 3 times at 5 min intervals for the next 20-25 min.
DA was unchanged for 40 min during the stabilization period. […] PHG213, a peptide antagonist of EP4 receptor, blocked the dilatory action of the receptor which is responsible for maintaining the ductus open in the fetus.

[5] = test system: human fetal spleen cells in coculture with fixed SaOS-2 cells; experiment: Osteoclastogenesis (TRAP+ cells) in coculture of human fetal spleen cells and fixed SaOS-2 cells; assay type: cell-based; details: PHG213 100 μM, three days; n=10
Procedure: Method: SaOs-2 cells (immortalized cell line of human osteoblasts) were grown for four days in 24-well plates in alpha-MEM medium containing 10% fetal calf serum , vitamin D3 (10^−7). Confluent SaOs-2 cells were fixed in 1% paraformaldehyde M) and dexamethasone (10^−8 M in phosphate-buffered sline (PBS) for 8 min. The cells were rinsed with PBS 4 times and alpha-MEM containing 10% fetal calf serum and vitamin D3 (10^−7 M) was added.
Two days before, spleens from human abortuses were cut into small pieces and triturated several times release the cells. The spleen cells were cultured in alpha-MEM containing 10% fetal calf serum for 2 days. Spleen cells were trypsinized, rinsed once in PBS and counted using a coulter counter. An aliquot of spleen cells (10^5 cells/well) were placed over the monolayer of fixed SaOs-2 cells for 2 h, after which PHG213 (100 μM) was added. Three days later, the cells were fixed in 4% paraformaldehyde in PBS, rinsed with water and tartarat-resistant […] (TRAP) was stained using a commercial kit (Sigma, St. Louis, Mo.). TRAP-positive cells were viewed under a microscope and counted.

Sequence of EP4 receptor (Homo sapiens, UniProt P35408, P4S) (P35408 whole entry P4S): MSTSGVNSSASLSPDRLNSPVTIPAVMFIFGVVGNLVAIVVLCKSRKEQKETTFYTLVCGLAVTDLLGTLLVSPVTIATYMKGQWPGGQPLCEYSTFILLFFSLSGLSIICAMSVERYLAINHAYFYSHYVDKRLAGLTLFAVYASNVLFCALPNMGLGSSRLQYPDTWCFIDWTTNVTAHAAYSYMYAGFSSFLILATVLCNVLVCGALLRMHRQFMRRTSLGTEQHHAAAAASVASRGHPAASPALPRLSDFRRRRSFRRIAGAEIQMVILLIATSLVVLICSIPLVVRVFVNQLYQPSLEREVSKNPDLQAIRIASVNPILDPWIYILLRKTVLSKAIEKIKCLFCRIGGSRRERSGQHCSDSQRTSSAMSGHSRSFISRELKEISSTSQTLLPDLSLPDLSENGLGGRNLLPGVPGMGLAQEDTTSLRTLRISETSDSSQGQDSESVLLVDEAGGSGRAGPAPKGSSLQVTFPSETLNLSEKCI

1 (IFTSYECL; Peptide inhibitor of prostaglandin E2 receptor subtype EP4) [compound 1]
% blockade of PGE2 induced vasodilation (saphenous vein of piglet): 50.0%

2 (IFASYECL; Peptide inhibitor of prostaglandin E2 receptor subtype EP4) [compound 2]
% blockade of PGE2 induced vasodilation (saphenous vein of piglet): 35.0%

3 (IFTSAECL; Peptide inhibitor of prostaglandin E2 receptor subtype EP4) [compound 3]
% blockade of PGE2 induced vasodilation (saphenous vein of piglet): 20.0%

4 (IFTSYEAL; Peptide inhibitor of prostaglandin E2 receptor subtype EP4) [compound 4]
% blockade of PGE2 induced vasodilation (saphenous vein of piglet): 60.0%

5 (ILASYECL; Peptide inhibitor of prostaglandin E2 receptor subtype EP4) [compound 5]
% blockade of PGE2 induced vasodilation (saphenous vein of piglet): 60.0%

6 (IFTSYDCL; Peptide inhibitor of prostaglandin E2 receptor subtype EP4) [compound 6]
% blockade of PGE2 induced vasodilation (saphenous vein of piglet): 30.0%

7 ([Bip]TSYEAL) [compound 7]
% blockade of PGE2 induced vasodilation (saphenous vein of piglet): 65.5%

8 ([Dip]TSYEAL) [compound 8]
% blockade of PGE2 induced vasodilation (saphenous vein of piglet): 64.5%

9 ([hPhe]TSYEAL) [compound 9]
% blockade of PGE2 induced vasodilation (saphenous vein of piglet): 34.0%

C=C[C@@]1(C)CC(=O)[C@]2(O)[C@@]3(C)[C@@H](O)CCC(C)(C)[C@@H]3[C@H](O)[C@H](OC(C)=O)[C@@]2(C)O1 [FSK, forskolin, reference compound]
CAMP (pmol/ml/10^5 cells) (EP4 receptor [1]): >270 pmol/ml/10^5 cells

CCCCC[C@H](O)/C=C/[C@H]1[C@H](O)CC(=O)[C@@H]1C/C=C\CCCC(=O)O [PGE2, Prostaglandin E2, reference compound]
CAMP (pmol/ml/10^5 cells) (EP4 receptor [2]; PGE2 1 μM added for 15 min, 100 μM IBMX): >270 pmol/ml/10^5 cells

PHG213: peptide antagonist of EP4 receptor, parent peptide, D-amino acids (IFTSYECL; also: D-amino acids, places not given here)
% inhibition of basal cAMP levels (EP4 receptor [2]; PHG213 100 μM with 100 μM IBMX for 1 h): 60.7%
CAMP (pmol/ml/10^5 cells) (EP4 receptor [2]; basal, PHG213 100 μM with 100 μM IBMX for 1 h, vehicle 69.9): 27.5 pmol/ml/10^5 cells
Block of the dilatory effect of PGE2 on ocular perfusion pressure (EP4 receptor [3]): blocked this dilatory effect of PGE2 completely
Glomerular filtration rate (GFR) increase (normal rats): 157%
Mean blood pressure (normal rats): not significantly altered
Urinary flow rate (UV) increase (normal rats): 2.3 fold
GFR (diabetic rats): increased
Mean blood pressure (diabetic rats): not significantly altered
UV (diabetic rats): increased
Ductus arteriosus (DA) diameter [4]: started to constrict and continued for another 15 min and was irreversible
Reduction of number of TRAP-positive cells (osteoclasts) [5]: half
